Assays:
[1] = Metabolites of Compound 2 in rat bile following a 1.0 mg/kg IV bolus dose; type: in vivo; conditions: 1.0 mg/kg IV bolus dose of Compound 2, bile duct cannulated rats, pooled 0-24 hrs
Method: Plasma and bile samples were obtained from a bile duct cannulated rat experiment (Study PK-0111) in which a 1.0 mg/kg IV bolus dose was administered to fed male rats (N=3). No control plasma was available from this experiment.
Bile samples (0-3, 3-7, and 7-24 hrs) from individual animals were pooled in proportion to the amount collect in each interval. Then 0.5 mL of each individual pool was combined to prepare a composite sample for analysis.
Pooled plasma and bile samples were extracted with ACN containing 0.1% formic acid, and after centrifugation at 1900×g, the supernatant was transferred to clean tubes and evaporated under N2 in a Turbovap set at 37° C. Residues were reconstituted in mobile phase (5:95 v:v ACN:0.1% aqueous formic acid) prior to analysis by HPLC/UV/MS^n.
(§1) Samples were analyzed by HPLC/UV/MS^n using a Thermo Orbitrap Elite mass spectrometer in conjunction with a Thermo Open Accela UHPLC system. A 3.0×150 mm, 2.5 μm Acquity CSH C18 HPLC column (Waters) was heated to 45° C. for separation of analytes. The mobile phase was a gradient of A): water containing 0.1% formic acid, and B): acetonitrile. The flow rate was 450 μL/min, and the following gradient program was utilized: […]
(§2) UV absorbance was monitored with a photo-diode array detector from 220-450 nm. The mass spectrometer was operated in positive-ion mode with a HESI ion source at a potential of 3.0 kV, and capillary and source heater temperatures of 380 and 300° C., respectively. Sheath, auxiliary, and sweep gas flows were set to 45, 10, and 2 units, respectively. Full scan mass spectra were acquired over the range 120-1200 m/z at a resolving power of 30,000 (specified at m/z 400). Data-dependent MS^n spectra were acquired in an automated fashion at 15,000 resolving power using CID and HCD fragmentation with normalized collision energy settings of 28 and 65 V, respectively.
(§3) Metabolites were characterized by comparisons of mass spectral fragmentation patterns with that of a Compound 2 standard. All HPLC/UV/MS^n data were processed using Xcalibur v. 2.2, and integrated UV peak areas were subjected to weighted UV binning procedures utilizing an Excel template.

mouse hepatocytes = assay: In vitro metabolism of Compound 2 in mouse cryopreserved hepatocytes; type: in vitro ADME; set-up: key to Relative abundance of metabolite of Compound 2, Mouse: ND Not detected.; trace: Trace: observed by HPLC/MS measurements only.; + Minor as assessed by HPLC/UV measurements; ++ moderate as assessed by HPLC/UV measurements; +++ major as assessed by HPLC/UV measurements.; * m/z 593 and m/z 505 co-eluted in rabbit hepatocytes.; ** m/z 591 c and m/z 593 were merged in human hepatocytes and Hepatopack.; *** m/z 607 and m/z 751 b were merged in rabbit hepatocytes; conditions: for metabolite of Compound 2 observed in mouse hepatocyte incubations: 10 μM Compound 2, 7.5×10^5 cells/mL, 1 and 4 hrs composite
Method: (§4) Male CD-1 mouse hepatocytes (lot YHL), male Wistar-Han rat hepatocytes (Celsius; product number: M000065; lot: SLA), female New Zealand rabbit hepatocytes (lot 1510147), male cryopreserved cynomolgus monkey hepatocytes (Celsius; product number: M00305; lot: DNB) and mixed-gender cryopreserved human hepatocytes (Bioreclamation; product number: S01988; lot: DCM) were obtained for the hepatocyte in-vitro assessments.
(§5) At time 0 hrs 550 μL aliquots were removed from incubations and quenched with 5 volumes of ACN containing 0.1% formic acid. At 1 and 4 hrs, 275 μL aliquots were removed and quenched as above; these were combined in the same tube to prepare a composite sample. For all hepatocyte experiments, samples were processed by centrifugation at 1900×g for 5 minutes, and then the supernatant was transferred to clean glass tubes and evaporated to dryness under a stream of N2 using a Turbovap at 37° C. Sample residues were reconstituted in mobile phase prior to analysis by HPLC/UV/MS^n.
as §1, §2, §3

rabbit hepatocytes = assay: In vitro metabolism of Compound 2 in rabbit cryopreserved hepatocytes; type: in vitro ADME; set-up: key to Relative abundance of metabolite of Compound 2, Rabbit: ND Not detected.; trace: Trace: observed by HPLC/MS measurements only.; + Minor as assessed by HPLC/UV measurements; ++ moderate as assessed by HPLC/UV measurements; +++ major as assessed by HPLC/UV measurements.; * m/z 593 and m/z 505 co-eluted in rabbit hepatocytes.; ** m/z 591 c and m/z 593 were merged in human hepatocytes and Hepatopack.; *** m/z 607 and m/z 751 b were merged in rabbit hepatocytes; conditions: for metabolite of Compound 2 observed in rabbit hepatocyte incubations: 10 μM Compound 2, 7.5×10^5 cells/mL, 1 and 4 hrs composite
Method: as §4, §5, §1, §2, §3

[2] = system: human co-cultured hepatocytes (Hepatopack); assay: In vitro metabolism of Compound 2 in human micropatterned co-cultured hepatocytes (Hepatopack); type: in vitro ADME; set-up: key to Relative abundance of metabolite of Compound 2, Hepatopack: ND Not detected.; trace: Trace: observed by HPLC/MS measurements only.; + Minor as assessed by HPLC/UV measurements; ++ moderate as assessed by HPLC/UV measurements; +++ major as assessed by HPLC/UV measurements.; * m/z 593 and m/z 505 co-eluted in rabbit hepatocytes.; ** m/z 591 c and m/z 593 were merged in human hepatocytes and Hepatopack.; *** m/z 607 and m/z 751 b were merged in rabbit hepatocytes
Text: Micro-patterned co-cultured (MPCC) hepatocyte 24-well plates containing human donors (16 wells each) were provided by Ascendance Biotechnology (formerly Hepregen Corp. (Medford, MA). [see Wang W W W, Khetani S R, Krzyzewski S, et al. Assessment of a Micropatterned Hepatocyte Coculture System to Generate Major Human Excretory and Circulating Drug Metabolites. Drug Metab Dispos 2010; 38(10):1900-5.] The MPCCs were created at Ascendance Biotechnology and maintained in serum containing medium for 5-6 days to allow for stabilization of the co-cultures prior to shipment. A mixed-gender cryopreserved pool of 10 human donors (X008001-P; lot YFA) was used to seed the plates and was purchased from BioreclamationIVT (Westbury, NY). MPCC hepatocytes are plated with fibroblasts in a 1:3 ratio with ˜25,000 hepatocytes/well in a 24-well plate. 24-Well MPCC plates were shipped to Pfizer, fresh medium (400 μL/well) was applied and cultures were kept at 37° C. with […] and 95% relative humidity for two days. Micropatterned co-cultures containing pooled hepatocytes were allowed 7 days to fully stabilize with respect to liver-specific functions. […] At respective time points (0, 2, and 7 days), the culture medium was removed and mixed with 4 volumes of ACN, then stored frozen at −40° C. until samples could be analyzed. Samples were subsequently processed by the addition of 2.5 mL of 1:1 ACN:MeOH containing 0.1% formic acid. After vortexing, the samples were centrifuged at 1900×g for 5 min, then the supernatant was transferred to 15 mL conical tubes and evaporated under N2 using a Turbovap set at 37° C. The residues were reconstituted in mobile phase (5:95 v:v ACN:0.1% aqueous formic acid) prior to analysis by HPLC/UV/MS^n.
as §1
UV absorbance was monitored with a photo-diode array detector from 220-450 nm. The mass spectrometer was operated in positive-ion mode with a HESI ion source at a potential of 3.0 kV, and capillary and source heater temperatures of 380 and 300° C., respectively. Sheath, auxiliary, and sweep gas flows were set to 45, 10, and 2 units, respectively. Full scan mass spectra were acquired over the range 120-1200 m/z at a resolving power of 30,000 (specified at m/z 400). […]

| SMILES | detected in rat bile [1] | detected in rat bile ([1]; listed as m/z 751b) | metabolite of Compound 2 observed in mouse hepatocyte incubations (mouse hepatocytes) | metabolite of Compound 2 observed in rabbit hepatocyte incubations (rabbit hepatocytes) | abundance of metabolite of Compound 2 in human Hepatopack system ([2]; Compound 2 tris salt 20 μM, up to 7 days) | detected in rat bile ([1]; listed as m/z 331) | Relative abundance of metabolite of Compound 2, Mouse (mouse hepatocytes; mouse cryopreserved hepatocytes, HPLC/UV/MS) | Relative abundance of metabolite of Compound 2, Rabbit (rabbit hepatocytes; rabbit cryopreserved hepatocytes, HPLC/UV/MS) | Relative abundance of metabolite of Compound 2, Hepatopack ([2]; human co-cultured hepatocytes (Hepatopack), HPLC/UV/MS) |
| --- | --- | --- | --- | --- | --- | --- | --- | --- | --- |
| C[C@]1(c2ccc(Cl)cn2)Oc2cccc(C3CCN(Cc4nc5ccc(C(=O)O[C@@H]6O[C@H](C(=O)O)[C@@H](O)[C@H](O)[C@H]6O)cc5n4C[C@@H]4CCO4)CC3)c2O1 [Metabolite 751b] | observed | detected | observed in all hepatocyte incubations | observed in all hepatocyte incubations | most abundant metabolites |  |  |  |  |
| C[C@]1(c2ccc(Cl)cn2)Oc2cccc(C3CCNCC3)c2O1 [Metabolite 331] | observed |  | observed in all hepatocyte incubations | observed in all hepatocyte incubations |  | detected | + | trace | trace |

From patent US12065434B2, “Metabolites of GLP1R agonists” (Pfizer Inc., priority 2020, dated 2024)
